Reference: ChEMBL document CHEMBL5226282, “TLR2 Agonistic Small Molecules: Detailed Structure-Activity Relationship, Applications, and Future Prospects” (J Med Chem, 2021)

Assays:
[1] = molecular target: Toll-like receptor 2 (Mus musculus) (UniProt Q9QUN7); test: Agonist activity at mouse TLR2 transfected in HEK293 cells relative to control; type: cell-based; set-up: concentration or dose not given beside the values
[2] = molecular target: Toll-like receptor 2 (Homo sapiens, UniProt O60603); test: Agonist activity at human TLR2 transfected in HEK293 cells; type: cell-based
Chain of Toll-like receptor 2 (O60603 whole entry): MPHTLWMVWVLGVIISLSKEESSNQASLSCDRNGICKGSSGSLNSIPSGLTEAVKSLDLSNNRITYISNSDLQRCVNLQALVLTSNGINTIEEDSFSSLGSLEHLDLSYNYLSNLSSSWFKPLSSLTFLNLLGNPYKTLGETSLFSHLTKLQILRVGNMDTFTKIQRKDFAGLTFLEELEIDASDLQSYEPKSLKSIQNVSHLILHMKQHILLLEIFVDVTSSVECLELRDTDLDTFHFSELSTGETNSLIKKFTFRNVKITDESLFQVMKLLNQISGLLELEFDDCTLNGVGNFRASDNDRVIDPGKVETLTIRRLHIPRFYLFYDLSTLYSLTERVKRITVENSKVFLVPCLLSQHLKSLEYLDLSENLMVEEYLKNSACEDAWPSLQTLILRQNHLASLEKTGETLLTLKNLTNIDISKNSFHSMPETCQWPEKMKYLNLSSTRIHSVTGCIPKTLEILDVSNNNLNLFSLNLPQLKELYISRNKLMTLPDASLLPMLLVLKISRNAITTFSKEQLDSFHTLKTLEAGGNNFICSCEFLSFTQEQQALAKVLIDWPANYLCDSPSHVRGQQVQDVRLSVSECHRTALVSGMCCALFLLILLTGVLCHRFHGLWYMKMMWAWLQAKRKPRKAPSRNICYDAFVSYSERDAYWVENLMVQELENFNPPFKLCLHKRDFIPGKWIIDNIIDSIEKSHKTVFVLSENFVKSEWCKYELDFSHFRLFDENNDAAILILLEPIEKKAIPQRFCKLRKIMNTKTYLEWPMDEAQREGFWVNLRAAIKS

Chain of Toll-like receptor 2 (Mus musculus) (Q9QUN7 whole entry): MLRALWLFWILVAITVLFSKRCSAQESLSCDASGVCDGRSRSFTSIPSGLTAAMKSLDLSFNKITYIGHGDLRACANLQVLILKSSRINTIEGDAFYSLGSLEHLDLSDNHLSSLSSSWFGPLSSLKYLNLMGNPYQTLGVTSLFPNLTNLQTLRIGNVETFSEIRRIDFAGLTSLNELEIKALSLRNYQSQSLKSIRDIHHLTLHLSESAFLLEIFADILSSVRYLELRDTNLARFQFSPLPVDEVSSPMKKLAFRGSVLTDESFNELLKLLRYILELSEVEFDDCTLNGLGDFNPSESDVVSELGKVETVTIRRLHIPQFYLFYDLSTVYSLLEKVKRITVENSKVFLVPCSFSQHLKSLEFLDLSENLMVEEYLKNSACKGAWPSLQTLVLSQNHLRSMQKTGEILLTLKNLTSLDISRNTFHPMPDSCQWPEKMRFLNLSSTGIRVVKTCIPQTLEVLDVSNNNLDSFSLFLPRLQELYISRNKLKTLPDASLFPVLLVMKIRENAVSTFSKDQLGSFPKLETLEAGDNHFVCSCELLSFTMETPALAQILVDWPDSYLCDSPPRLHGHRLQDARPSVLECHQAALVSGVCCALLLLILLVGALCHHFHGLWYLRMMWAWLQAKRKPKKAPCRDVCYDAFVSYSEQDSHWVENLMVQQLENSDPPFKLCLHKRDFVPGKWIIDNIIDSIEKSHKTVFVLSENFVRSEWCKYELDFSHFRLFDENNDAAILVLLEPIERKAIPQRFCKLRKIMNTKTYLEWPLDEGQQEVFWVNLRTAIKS

Row | Structure (SMILES) | EC50 [2] [nM] | further results
1 | CCCCCCCCCCCCCCCC(=O)N[C@H](CSCC(COC(=O)CC)OC(=O)CC)C(=O)N[C@@H](CO)C(=O)N[C@@H](CCCCN)C(=O)N[C@@H](CCCCN)C(=O)N[C@@H](CCCCN)C(=O)N[C@@H](CCCCN)C(=O)O (some centres not stated) | – | Activity [1]: 26%
2 | CCCCCCCCCCCCCCCC(=O)OCC(CSC[C@@H](NC(=O)CCCCCCCCC)C(=O)N[C@@H](CO)C(=O)N[C@@H](CCCCN)C(=O)N[C@@H](CCCCN)C(=O)N[C@@H](CCCCN)C(=O)N[C@@H](CCCCN)C(=O)O)OC(=O)CCCCCCCCCCCCCCC (some centres not stated) | – | Activity ([1]; filed as agonist): > 100%
3 | CCCCCCCCCCCC(=O)OC[C@H](CSC[C@@H](N)C(=O)N[C@@H](CC)COCC(=O)O)OC(=O)CCCCCCCCCCC | 6500 | –
4 | CCCCCCCCCCCC(=O)OC[C@H](CSC[C@@H](N)C(=O)NCCOCCOCCOCCOCCP(=O)(O)O)OC(=O)CCCCCCCCCCC | 38 | –
5 | CCCCCC(=O)N[C@H](CSCC(COC(=O)CC)OC(=O)CC)C(=O)N[C@@H](CO)C(=O)N[C@@H](CCCCN)C(=O)N[C@@H](CCCCN)C(=O)N[C@@H](CCCCN)C(=O)N[C@@H](CCCCN)C(=O)O (some centres not stated) | – | Activity [1]: 11%
6 | CCCCCCCCCCCC(=O)OC[C@H](CSC[C@@H](N)C(=O)NCCOCCOCCOCCC(=O)O)OC(=O)CCCCCCCCCCC | 900 | –
7 | CCCCCCCCCCCC(=O)OC[C@H](CSC[C@@H](N)C(=O)N[C@@H](CO)C(=O)NCCOCCOCCOCCC(=O)O)OC(=O)CCCCCCCCCCC | 4940 | –
8 | CCCCCCCCCCCCCCCC(=O)OCC(CSC[C@@H](NC(=O)Cc1ccccc1)C(=O)N[C@@H](CO)C(=O)N[C@@H](CCCCN)C(=O)N[C@@H](CCCCN)C(=O)N[C@@H](CCCCN)C(=O)N[C@@H](CCCCN)C(=O)O)OC(=O)CCCCCCCCCCCCCCC (some centres not stated) | – | Activity ([1]; filed as agonist): > 100%
9 | CCCCCCCCCCCC(=O)OC[C@H](CSC[C@@H](N)C(=O)NCCCS(=O)(=O)O)OC(=O)CCCCCCCCCCC | 5560 | –
10 | CCCCCCCCCCCC(=O)OC[C@H](CSC[C@@H](N)C(=O)NCCCn1ccnc1)OC(=O)CCCCCCCCCCC | 410 | –
11 | CCCCCCCCCCCC(=O)OC[C@H](CSC[C@@H](N)C(=O)NCCCC(C)(C)CO)OC(=O)CCCCCCCCCCC | 30700 | –
12 | CCCCCCCCCCCC(=O)OC[C@H](CSC[C@@H](N)C(=O)NCCCCCCN)OC(=O)CCCCCCCCCCC | 1220 | –
13 | CCCCCCCCCCCC(=O)OC[C@H](CSC[C@@H](N)C(=O)NCCc1ccc(OCCC(C)C)cc1)OC(=O)CCCCCCCCCCC | 8170 | –
14 | CCCCCCCC(=O)OCC(CSC[C@@H](NC(=O)CCCCC)C(=O)N[C@@H](CO)C(=O)N[C@@H](CCCCN)C(=O)N[C@@H](CCCCN)C(=O)N[C@@H](CCCCN)C(=O)N[C@@H](CCCCN)C(=O)O)OC(=O)CCCCCCC (some centres not stated) | – | Activity [1]: 11%
15 | CCCCCCCCCCCC(=O)OC[C@H](CSC[C@@H](N)C(=O)NC(CC)COC)OC(=O)CCCCCCCCCCC (some centres not stated) | 71.8 | –
16 | CCCCCCCCCC(=O)N[C@H](CSCC(COC(=O)CC)OC(=O)CC)C(=O)N[C@@H](CO)C(=O)N[C@@H](CCCCN)C(=O)N[C@@H](CCCCN)C(=O)N[C@@H](CCCCN)C(=O)N[C@@H](CCCCN)C(=O)O (some centres not stated) | – | Activity [1]: 26%
17 | CCCCCCCCCCCCCC(=O)N[C@H](CSCC(COC(=O)CCCCC)OC(=O)CCCCC)C(=O)N[C@@H](CO)C(=O)N[C@@H](CCCCN)C(=O)N[C@@H](CCCCN)C(=O)N[C@@H](CCCCN)C(=O)N[C@@H](CCCCN)C(=O)O (some centres not stated) | – | Activity [1]: 0%
18 | CCCCCCCCCCCC(=O)OC[C@H](CSC[C@@H](N)C(=O)NCCOCCC(F)(F)P(=O)(O)O)OC(=O)CCCCCCCCCCC | 14 | –
19 | CCCCCC(=O)OCC(CSC[C@@H](NC(=O)Cc1ccccc1)C(=O)N[C@@H](CO)C(=O)N[C@@H](CCCCN)C(=O)N[C@@H](CCCCN)C(=O)N[C@@H](CCCCN)C(=O)N[C@@H](CCCCN)C(=O)O)OC(=O)CCCCC (some centres not stated) | – | Activity [1]: 0%
20 | CCCCCCCCCCCCCCCC(=O)N[C@H](CSCC(COC(=O)CCCCCCCCCCCCCCC)OC(=O)CCCCCCCCCCCCCCC)C(=O)N[C@@H](CO)C(=O)N[C@@H](CCCCN)C(=O)N[C@@H](CCCCN)C(=O)N[C@@H](CCCCN)C(=O)N[C@@H](CCCCN)C(=O)O (some centres not stated) | – | Activity ([1]; filed as agonist): 51%
21 | CCCCCCCCCCCC(=O)OC[C@H](CSC[C@@H](N)C(=O)NC(Cc1ccccc1)c1ccccc1)OC(=O)CCCCCCCCCCC (some centres not stated) | 68 | –
22 | CCCCCCCCCCCCCCCC(=O)OCC(CSC[C@@H](NC(=O)CCCCC)C(=O)N[C@@H](CO)C(=O)N[C@@H](CCCCN)C(=O)N[C@@H](CCCCN)C(=O)N[C@@H](CCCCN)C(=O)N[C@@H](CCCCN)C(=O)O)OC(=O)CCCCCCCCCCCCCCC (some centres not stated) | – | Activity ([1]; filed as agonist): > 100%
23 | CCCCCCCCCCCC(=O)OC[C@H](CSC[C@@H](N)C(=O)NCCc1cccc(O)c1)OC(=O)CCCCCCCCCCC | > 21000 | –
24 | CCCCCCCCCCCC(=O)OC[C@H](CSC[C@@H](N)C(=O)NCCCOCCCCOCCCCN)OC(=O)CCCCCCCCCCC | 810 | –

Row | Structure (SMILES) | EC50 [2] [nM] | further results
25 | CCCCCCCCCCCCCCCC(=O)N[C@H](CSCC(COC(=O)CCCCCCC)OC(=O)CCCCCCC)C(=O)N[C@@H](CO)C(=O)N[C@@H](CCCCN)C(=O)N[C@@H](CCCCN)C(=O)N[C@@H](CCCCN)C(=O)N[C@@H](CCCCN)C(=O)O (some centres not stated) | – | Activity [1]: 0%
26 | CCCCCCCCCCCC(=O)OC[C@H](CSC[C@@H](N)C(=O)NCCc1ccc(OCCCP(=O)(O)O)cc1)OC(=O)CCCCCCCCCCC | 410 | –
27 | CCCCCCCCCC(=O)N[C@H](CSCC(COC(=O)CCCCCCC)OC(=O)CCCCCCC)C(=O)N[C@@H](CO)C(=O)N[C@@H](CCCCN)C(=O)N[C@@H](CCCCN)C(=O)N[C@@H](CCCCN)C(=O)N[C@@H](CCCCN)C(=O)O (some centres not stated) | – | Activity [1]: 11%
28 | CCCCCC(=O)N[C@H](CSCC(COC(=O)CCCCC)OC(=O)CCCCC)C(=O)N[C@@H](CO)C(=O)N[C@@H](CCCCN)C(=O)N[C@@H](CCCCN)C(=O)N[C@@H](CCCCN)C(=O)N[C@@H](CCCCN)C(=O)O (some centres not stated) | – | Activity [1]: 0%
29 | CCCCCCCCCCCCCC(=O)N[C@H](CSCC(COC(=O)CCCCCCC)OC(=O)CCCCCCC)C(=O)N[C@@H](CO)C(=O)N[C@@H](CCCCN)C(=O)N[C@@H](CCCCN)C(=O)N[C@@H](CCCCN)C(=O)N[C@@H](CCCCN)C(=O)O (some centres not stated) | – | Activity ([1]; filed as agonist): 51%
30 | CCCCCCCCCCCC(=O)OC[C@H](CSC[C@@H](N)C(=O)NCCCOCCOCCOCCCN)OC(=O)CCCCCCCCCCC | 498 | –
31 | CCCCCCCCCCCC(=O)OC[C@H](CSC[C@@H](N)C(=O)N[C@H](C)COCCCP(=O)(O)O)OC(=O)CCCCCCCCCCC | 19.2 | –
32 | CCCCCCCC(=O)OCC(CSC[C@@H](NC(=O)Cc1ccccc1)C(=O)N[C@@H](CO)C(=O)N[C@@H](CCCCN)C(=O)N[C@@H](CCCCN)C(=O)N[C@@H](CCCCN)C(=O)N[C@@H](CCCCN)C(=O)O)OC(=O)CCCCCCC (some centres not stated) | – | Activity [1]: 11%
33 | CCCCCCCCCCCC(=O)OC[C@H](CSC[C@@H](N)C(=O)NCCCCN)OC(=O)CCCCCCCCCCC | 1040 | –
34 | CCCCCCCCCCCC(=O)OC[C@H](CSC[C@@H](N)C(=O)NC(C)(C)CO)OC(=O)CCCCCCCCCCC | 15500 | –
35 | CCCCCCCCCCCCCC(=O)N[C@H](CSCC(COC(=O)CC)OC(=O)CC)C(=O)N[C@@H](CO)C(=O)N[C@@H](CCCCN)C(=O)N[C@@H](CCCCN)C(=O)N[C@@H](CCCCN)C(=O)N[C@@H](CCCCN)C(=O)O (some centres not stated) | – | Activity ([1]; filed as agonist): 51%
36 | CCCCCCCCCC(=O)N[C@H](CSCC(COC(=O)CCCCC)OC(=O)CCCCC)C(=O)N[C@@H](CO)C(=O)N[C@@H](CCCCN)C(=O)N[C@@H](CCCCN)C(=O)N[C@@H](CCCCN)C(=O)N[C@@H](CCCCN)C(=O)O (some centres not stated) | – | Activity [1]: < 10%
37 | CCCCCCCCCCCCCCCC(=O)N[C@H](CSCC(COC(=O)CCCCC)OC(=O)CCCCC)C(=O)N[C@@H](CO)C(=O)N[C@@H](CCCCN)C(=O)N[C@@H](CCCCN)C(=O)N[C@@H](CCCCN)C(=O)N[C@@H](CCCCN)C(=O)O (some centres not stated) | – | Activity [1]: 0%
38 | CCCCCCCCCCCCCCCC(=O)OCC(CSC[C@@H](N)C(=O)N[C@@H](CO)C(=O)N[C@@H](CC(N)=O)C(=O)N[C@@H](CC(C)C)C(=O)N[C@H](C(=O)N[C@H](C(=O)N[C@@H](C)C(=O)N[C@@H](CO)C(=O)N[C@@H](CCC(=O)O)C(=O)N[C@H](C(=O)N[C@@H](CC(C)C)C(=O)O)[C@@H](C)O)[C@@H](C)CC)[C@@H](C)CC)OC(=O)CCCCCCCCCCCCCCC (some centres not stated) | – | EC50 ([2]; hek293): 270 nM
39 | CCCCCCCCCCCC(=O)OC[C@H](CSC[C@@H](N)C(=O)NC(C)CCN(CC)CC)OC(=O)CCCCCCCCCCC (some centres not stated) | 257 | –
40 | CCCCCCCCCCCC(=O)OC[C@H](CSC[C@@H](N)C(=O)NCCOCCOCCN)OC(=O)CCCCCCCCCCC | 1290 | –
41 | CCCCCCCCCCCC(=O)OC[C@H](CSC[C@@H](N)C(=O)NCCCOCCOCCOCCCNC(=O)C(N)CS)OC(=O)CCCCCCCCCCC (some centres not stated) | 247 | –
42 | CCCCCCCCCCCC(=O)OC[C@H](CSC[C@@H](N)C(=O)NCCOCCP(=O)(O)O)OC(=O)CCCCCCCCCCC | 119 | –
43 | CCCCCCCCCCCC(=O)OC[C@H](CSC[C@@H](N)C(=O)NC(C)CCC(C)C)OC(=O)CCCCCCCCCCC (some centres not stated) | 190 | –
44 | CCCCCCCCCCCCCCCC(=O)OCC(CSC[C@@H](NC(=O)CCCCCCCCCCCCC)C(=O)N[C@@H](CO)C(=O)N[C@@H](CCCCN)C(=O)N[C@@H](CCCCN)C(=O)N[C@@H](CCCCN)C(=O)N[C@@H](CCCCN)C(=O)O)OC(=O)CCCCCCCCCCCCCCC (some centres not stated) | – | Activity ([1]; filed as agonist): > 100%
45 | CCC(=O)OCC(CSC[C@@H](NC(=O)Cc1ccccc1)C(=O)N[C@@H](CO)C(=O)N[C@@H](CCCCN)C(=O)N[C@@H](CCCCN)C(=O)N[C@@H](CCCCN)C(=O)N[C@@H](CCCCN)C(=O)O)OC(=O)CC (some centres not stated) | – | Activity [1]: 0%
46 | CCCCCCCCCCCC(=O)OC[C@H](CSC[C@@H](N)C(=O)NCCOCCOCCOCCP(=O)(O)O)OC(=O)CCCCCCCCCCC | 270 | –
47 | CCCCCCCCCCCC(=O)OC[C@H](CSC[C@@H](N)C(=O)NCCOCCOCCC(F)(F)P(=O)(O)O)OC(=O)CCCCCCCCCCC | 31 | –
